Assay results published in ChEMBL document CHEMBL4425146, “Synthesis and biological evaluation of N(9)-substituted harmine derivatives as potential anticancer agents” (Bioorg Med Chem Lett, 2016).

Columns and labels:
Assay type in all cases: functional, cell-based
MCF7 = assay: Cytotoxicity against human MCF7 cells assessed as inhibition of cell growth after 48 hrs by MTT assay; details: MCF7, 48 h
SGC-7901 = assay: Cytotoxicity against human SGC7901 cells assessed as inhibition of cell growth after 48 hrs by MTT assay; details: SGC-7901, 48 h
SMMC-7721 = assay: Cytotoxicity against human SMMC7721 cells assessed as inhibition of cell growth after 48 hrs by MTT assay; details: SMMC-7721, 48 h
A549 = assay: Cytotoxicity against human A549 cells assessed as inhibition of cell growth after 48 hrs by MTT assay; details: A549, 48 h

CCCn1c2cc(OC)ccc2c2ccnc(C)c21
IC50 (MCF7): > 50 µM
IC50 (SGC-7901): 19.4 µM
IC50 (SMMC-7721): 48.8 µM
IC50 (A549): 9.66 µM

CCCCCn1c2cc(OC)ccc2c2ccnc(C)c21
IC50 (MCF7): > 50 µM
IC50 (SGC-7901): 20.5 µM
IC50 (SMMC-7721): 17.2 µM
IC50 (A549): 6.37 µM

COc1ccc2c3ccnc(C)c3n(Cc3cc(F)cc(F)c3)c2c1
IC50 (MCF7): > 50 µM
IC50 (SGC-7901): 6.47 µM
IC50 (SMMC-7721): > 50 µM
IC50 (A549): 18.4 µM

CCn1c2cc(OC)ccc2c2ccnc(C)c21
IC50 (MCF7): > 50 µM
IC50 (SGC-7901): 29.6 µM
IC50 (SMMC-7721): 24 µM
IC50 (A549): 26.4 µM

COc1ccc2c3ccnc(C)c3n(CCCCCBr)c2c1
IC50 (MCF7): 0.76 µM
IC50 (SGC-7901): 9.34 µM
IC50 (SMMC-7721): 6.49 µM
IC50 (A549): 4.8 µM

COc1ccc2c3ccnc(C)c3n(Cc3ccccc3C)c2c1
IC50 (MCF7): > 50 µM
IC50 (SGC-7901): 17.2 µM
IC50 (SMMC-7721): 39.5 µM
IC50 (A549): 8.34 µM

CCCCCCn1c2cc(OC)ccc2c2ccnc(C)c21
IC50 (MCF7): > 50 µM
IC50 (SGC-7901): 13.3 µM
IC50 (SMMC-7721): 14.4 µM
IC50 (A549): 4.89 µM

COc1ccc2c3ccnc(C)c3n(Cc3ccccc3F)c2c1
IC50 (MCF7): > 50 µM
IC50 (SGC-7901): 43.6 µM
IC50 (SMMC-7721): > 50 µM
IC50 (A549): 5.67 µM

COc1ccc2c3ccnc(C)c3n(Cc3ccc(F)cc3)c2c1
IC50 (MCF7): > 50 µM
IC50 (SGC-7901): 7.21 µM
IC50 (SMMC-7721): > 50 µM
IC50 (A549): 8.73 µM

COc1ccc2c3ccnc(C)c3n(C)c2c1
IC50 (MCF7): > 50 µM
IC50 (SGC-7901): 9.67 µM
IC50 (SMMC-7721): 43.6 µM
IC50 (A549): 4.97 µM

COc1ccc2c3ccnc(C)c3n(Cc3ccccc3)c2c1
IC50 (MCF7): > 50 µM
IC50 (SGC-7901): 38.2 µM
IC50 (SMMC-7721): 45.6 µM
IC50 (A549): 7.49 µM

COc1ccc2c3ccnc(C)c3n(C(=O)c3ccccc3)c2c1
IC50 (MCF7): > 50 µM
IC50 (SGC-7901): 7.69 µM
IC50 (SMMC-7721): > 50 µM
IC50 (A549): 2.81 µM

COc1ccc2c3ccnc(C)c3n(CCCCCl)c2c1
IC50 (MCF7): 2.94 µM
IC50 (SGC-7901): 7.21 µM
IC50 (SMMC-7721): 17.9 µM
IC50 (A549): 8.73 µM

COc1ccc2c3ccnc(C)c3n(Cc3ccc(C)cc3)c2c1
IC50 (MCF7): > 50 µM
IC50 (SGC-7901): 5.29 µM
IC50 (SMMC-7721): 21.3 µM
IC50 (A549): 3.89 µM

COc1ccc2c3ccnc(C)c3n(C(C)=O)c2c1
IC50 (MCF7): > 50 µM
IC50 (SGC-7901): 6.39 µM
IC50 (SMMC-7721): > 50 µM
IC50 (A549): 1.27 µM
